From patent US11021445B2, “Carboxylic acid derivative as AT2R receptor antagonist” (SHANDONG DANHONG PHARMACEUTICAL CO., LTD., priority 2017, dated 2021)
Like-named read-outs stand apart in the source and are kept apart here.

Assays:
[1] = Determination of kinetic solubility; format: physicochemical; conditions: buffer solution pH 7.4, aqueous buffer, kinetic from dmso stock, pH 7.4, 24 hours at room temperature, theoretical maximum 200 μM
Procedure: The to-be-tested compound was dissolved in DMSO to prepare a 10 mmol/L stock solution. 980 μL of dissolution medium was pipetted into a 2 mL screw-capped glass vial by using a pipette (Eppendorf Research Company). 20 μL of the stock solution of each test compound and the QC sample were added to a buffer solution corresponding to a kinetic detection solution of pH 7.4. The final concentrations of the test compound and DMSO solution were 200 μM and 2%, respectively. The cover of the medicine bottle was screwed. The theoretical maximum concentration is 200 μM. The mixture was shaken at 880 rpm for 24 hours at room temperature. The vial was centrifuged for 30 minutes at 13,000 rpm. 200 μL of the supernatant was added to a 96-well plate by using a digital pipette. The solubility of the test compound was determined by high performance liquid chromatography, and the experimental results are shown in Table 2.

hAT2 = target: T1, hAT2 (Homo sapiens, UniProt P50052); assay: hAT2 receptor binding assay (SPA, [125I]-Sar1-Ile8-Angiotensin II); conditions: membrane of HEK-293 cells overexpressing hAT2; 0.1 nM 125I ligand
T1 construct: expressed in transfected cells; host or cells: HEK-293
T1 sequence (P50052 1-363): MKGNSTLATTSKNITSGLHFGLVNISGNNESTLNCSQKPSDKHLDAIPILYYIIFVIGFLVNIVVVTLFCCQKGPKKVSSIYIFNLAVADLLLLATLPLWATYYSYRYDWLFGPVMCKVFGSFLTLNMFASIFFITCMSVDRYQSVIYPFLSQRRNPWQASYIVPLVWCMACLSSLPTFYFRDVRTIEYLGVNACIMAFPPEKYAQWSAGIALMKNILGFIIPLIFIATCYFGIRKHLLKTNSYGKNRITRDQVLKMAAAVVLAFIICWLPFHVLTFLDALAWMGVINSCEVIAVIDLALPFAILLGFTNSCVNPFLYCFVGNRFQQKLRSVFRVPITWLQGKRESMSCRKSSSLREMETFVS
Procedure: hAT2 Receptor Binding Assay
Protease inhibitor mixture, free of ethylenediaminetetraacetic acid-1 tablets (Roche #11873580001) (50 mL plus one piece)
Experimental Methods and Steps
The reference ligand PD123319 and the test compound were prepared into a 750 μM mother liquor by DMSO; each compound was prepared into a solution of 8 concentration gradients (up to a concentration of 750 μM, 3-fold dilution) and 10 μl of the solution was added to a master of a 384-well plate per well.
The SPA beads were prepared to a mother liquor of 25 mg/ml by the buffer;
The isotope [^125I]-Sar1-Ile8-Angiotensin II was prepared into a mother liquor of 50 μCi/ml by adding pure water.
The cell membrane overexpressing hAT2 in HEK-293 cells was prepared to 2.5 mg/ml by the buffer.
200 nl of compound was aspirated from the mother plate with ECHO to each well of the 384-well test plate. ZPE was added to an equal volume of DMSO. (The concentration of the test compound in the reaction was diluted by 250 times).
A 50 ml membrane solution containing 10 μg/μl of magnetic beads and 0.05 μg/μl of AT2 was prepared, placed on a shaker and uniformly mixed. (100 rpm, 30 min). The test plate finally contained an hAT2 membrane with 1.25 μg/well and magnetic beads with 250 μg/well.
A 3.2 ml membrane liquid mixture was added to the compound test plate by using a Multidrop Combi pipette, and 25 μl was added to each well.
A 0.2 nM solution was prepared with 50 μCi/ml of isotope [^125I]-Sar1-Ile8-Angiotensin II mother liquor by the buffer, and 0.2 nM of ^125I was added to the compound test plate with a Multidrop Combi pipette. A volume of 25 μl was added to each well. The final concentration of ^125I isotope is 0.1 nM.
The prepared test plate was placed on a shaker overnight at room temperature at 200 rpm.
The test plate was centrifuged with a centrifuge at 1200 rpm for 1 min.
The centrifuged test plate was read with Microbeta.

[2] = Plasma protein binding rate (PPB) test, equilibrium dialysis; format: in vitro ADME; conditions: human, 37°C
Procedure: (§1) In vitro protein binding rates of 0.2 μM, 2 μM, 10 μM of test compounds with Sprague-Dawley rats, beagle dogs, human plasma were determined by equilibrium dialysis.
(§2) The experiment will use a 96-well equilibrium dialysis plate (HTDialysis device) to determine the plasma protein binding rate of the to-be-tested compound and the control compounds.
(§3) Prior to the start of the experiment, the dialysis membrane was pretreated according to the instructions for use and the dialysis unit was assembled as required.
(§4) Blank plasma was taken from CD-1 mice, Sprague-Dawley rats, Beagle dogs, cynomolgus monkeys and humans (an anticoagulant is EDTA-K2, which is a commercial product purchased, or is collected and prepared by the Drug Evaluation Department of Wuxi AppTech, and is stored in a refrigerator below −60° C. before use). A certain volume of the to-be-tested compound or the control compound working solution was added to prepare plasma samples of the compound to be tested at a concentration of 0.2, 2, 10 μM and plasma samples of the control compound at a concentration of 2 μM (n=1). The organic phase content was ≤1%. First, a certain volume of a plasma sample containing the to-be-tested compound and the control compound was taken out into the sample receiving plate as a sample at zero time (T0 sample, n=3); secondly, a plasma sample containing the to-be-tested compound and the control compound was added to one side of the dialysis membrane (plasma end, n=3), and a certain volume of dialysis buffer (buffer end, n=3) was added to the other side of the dialysis membrane; then the dialysis plate was placed in a humidified incubator with 5% CO2 for incubation for 4 hours at 37±1° C.
(§5) After the incubation, a certain volume of the dialyzed buffer sample (F sample) and the dialyzed plasma sample (T sample) were transferred to the sample receiving plate, and all samples were subjected to protein precipitation for LC/MS/MS analysis. And the dissociation rate of the compound (% Unbound) was calculated by the following formula: % Unbound=100*[F]/[T], % Bound=100−% Unbound. Wherein, % Unbound is the dissociation rate of the compound; % Bound is the binding rate of the compound; [F] is the concentration of the compound at the buffer end of the dialysis plate; [T] is the concentration of the compound at the plasma end of the dialysis plate; and the experimental results are shown in Table 7.

[3] = as above; format: in vitro ADME, Sprague-Dawley rats; conditions: Sprague-Dawley, rat, 37°C, read-out: Plasma Protein Binding (%) SD Rat Plasma (converted)
Procedure: as §1, §2, §3, §4, §5

solubility at 24 h [1]: > 200 µM | IC50 (hAT2): 15.9 nM | fraction unbound at 4 h [2]: 0.002 | fraction unbound at 4 h [3]: 0.002
Compound: N#Cc1ccc2c(c1OCc1ccccc1)C[C@@H](C(=O)O)N(C(=O)[C@H](OC1CCCC1)c1ccccc1)C2 [Compound 111]
